The conditions of data set [1]: in vivo; cited from earlier work.

Take `Cc1cc(-c2nnn3c2nc(N2CCN(c4ccccn4)C(=O)C2)c2ccccc23)no1`: the melting point was 266 °C (dec.). The same measure, in the same setting: the result for `Cc1cc(-c2nnn3c2nc(N2CCN(c4ccccc4)C(=O)C2)c2ccccc23)no1` reads 263 °C (dec.).

Turning to `COC(=O)c1cc2c(cn1)[nH]c1ccccc12` [β-CCM], the “spatial learning in the Morris watermaze” value in data set [1] is “enhanced spatial learning”.

As for `Cc1cc(-c2nnn3c2nc(N2CCN(c4cccnc4)C(=O)C2)c2ccccc23)no1`, the melting point is 247 °C (dec.).
